Data set [1] has as its system cortical neurons. The data set is described as follows: NMDA-induced excitotoxicity, LDH release. The note with it: cultured cortical neuronal cells; sample 30 min before NMDA; lower than MK-801; FIG. 2. The data set is classed as cell-based, SD rats. Also on record: dose or concentration left out as unconfirmed. On the procedure:
(§1) Cortical neurons (5×10^5 cells/ml) were isolated from fetal SD rats (16-17 days). Specifically, brain cortex was cut, and cells were isolated from the tissue by repeated trituration using a Pasteur pipette in buffer (Hanks' Balanced Salt Solution, HBSS). The cell suspension (1.8×10^3 cells/mm^2) was dispensed on a plate pretreated with poly-D-lysine ([…])/laminin ([…]). The cells were placed in 10% FBS-containing NBM medium, and incubated in a […]/5% CO2 atmosphere at 37° C. After 15-16 days of the incubation, the experiment was performed.
After incubation on the plate for 15-18 days, the cortical neurons were exposed to NMDA ([…]) in a solution (Mg^2+-free Earle's balanced salt solution (EBSS); containing 1.8 mM CaCl2 and 10 mM glycine) for 10 minutes. After exposure, the cells were washed with MgSO4-containing EBSS solution, and incubated in 25 mmol/L glucose-containing DMEM medium in a 5% CO2 incubator at 37° C. 30 Minutes before treatment with NMDA, the cells were treated with each sample […].
(§2) In order to measure cell injury or cell death, the amount of LDH released into the medium was measured using a cell viability measurement kit (Sigma-Aldrich, St. Louis, Mo.). Cell viability was expressed as the percentage of LDH relative to the total cellular LDH level measured in sister cultures lysed by freezing-thawing after the experiment.
(In general: LDH in the medium is a marker of cell lysis.)

Data set [2] can be described thus: DPPH assay (ability to scavenge nitrogen radicals). Also noted: DPPH assay % inhibition: concentration or dose not given beside the values. On the procedure: The samples were mixed with DPPH (23.6 μg/ml, in ethanol), and incubated in dark at 37° C. for 30 minutes. The DPPH absorbance reduced by each sample was measured at 517 nm. Vitamin C (Sigma-Aldrich, St. Louis, Mo.) was used as a control, and the DPPH inhibition value (%) was calculated using the following equation: Scavenging activity (%)=[Absmax(Vit.C)−Abssample]/[Absmax(Vit.C)−Absmin(Vit.C)]×100. Equation 1
(§3) The antioxidant activities of the verbenone derivatives of the present invention were measured by the following two different chemical reactions: (1) a single electron transfer-based assay that is a […] [DPPH] assay that measures a decrease in DPPH acting as a free radical generator and a termination probe; and (2) a hydrogen atom transfer assay that is an oxygen radical absorbance capacity [[…]] assay that measures the competitive reaction kinetics of a peroxyl radical generator (AAPH; 2,2′-azobis-(2-methylpropionamide)-dihydrochloride) and each sample acting as an antioxidant for oxidizable fluorescent probe (fluorescein).
(In general: DPPH is a stable violet radical that fades when it is reduced.)

The subject of data set [3] is cortical neurons. In words: Oxygen-glucose deprivation (OGD)/reoxygenation neuronal injury, LDH release. To be noted: rat cortical neurons, FIG. 1. Format: cell-based. As to the method:
as §1
In order to induce hypoxic-ischemic symptoms in vitro, the incubated cells were placed in an anoxic chamber (partial oxygen pressure <2 mmHg). The cells were incubated glucose-free DMEM while being bubbled with an anaerobic gas mixture (95% N2 and 5% CO2) for 30 minutes to remove residual oxygen, and were incubated at 37° C. for 90 minutes for oxygen deprivation. After 90 minutes, the exposed solution was replaced with 25 mmol/L glucose-containing DMEM medium to stop the OGD reaction, and the cells were restored to normal oxygen conditions. Control cells not exposed to OGD were incubated in glucose (25 mmol/L)-containing DMEM medium provided with an aerobic gas mixture (95% air and 5% CO2). The cells were treated with each sample 30 minutes before, and during the entire period of OGD/re-oxygenation.
as §2

Data set [4] is described as follows: Oxygen radical absorbance capacity (ORAC) assay. To be noted: for ORAC assay TE25 (trolox equivalents): net AUC sample / net AUC trolox. Also noted: ORAC assay TE25 (trolox equivalents): dose or concentration left out as unconfirmed. On the procedure:
An ORAC assay was performed as disclosed in the literature (Huang, D. et al., J. Agric. Food Chem., 53, 1841-56, 2005).
AAPH (60 mM) and fluorescein (50 nM) were prepared in buffer (75 mM phosphate buffer, pH7.4) without a sample or a sample or a standard (Trolox). Each of the samples and the standard was suspended in a solution of 7% RMCD (randomly methylated beta-cyclodextrin) in 50% acetone. RMCD was used to increase the solubility of oil-soluble samples. Each sample was sufficiently mixed with fluorescein solution (66 nM, 190 μl) by shaking for 5 seconds. After incubation at 37° C. for 10 minutes, AAPH (500 mM, 30 μl) was quickly added to each sample, and a decrease in the fluorescence was measured using a fluorescence microplate reader (Ex=485 nm, Em=530 nm; SpectraMax GeminiEM, Molecular Devices, Sunnyvale, Calif.) at 37° C. at 5-min intervals for 9 hours. To quantify the activity of scavenging peroxyl radicals, AUC (area-under-the-curve) was calculated according to the following equation 2, and net AUC was calculated according to the following equation 3, and the TE (trolox equivalents) of each sample was calculated according to the following equation 4 based on a standard curve of net AUC plotted according to an increase in trolox concentration. AUC=(0.5+f1/f0+f2/f0+f3/f0+ . . . +fn−2/f0+fn−1/f0+fn/f0)×5, Equation 2
wherein f0 is the first fluorescence at 0 min and time I. Net AUC=AUCsample−AUCblank. Equation 3 TE(trolox equivalents) of each sample=[netAUCsample […]]/[net AUCtrolox […]]. Equation 4
as §3

Data set [5] relates to cortical neurons. In words: Intracellular levels (DCF fluorescence) of reactive oxygen species after OGD/reoxygenation. The note with it: FIG. 3. The data set is classed as cell-based, SD rats. As to the method: In order to examine the direct radical scavenging activities of the samples, at 1 hour after reoxygenation, the cells were stained with the fluorescent probe H2DCF-DA (2,7-dihydroichlorofluorescein diacetate) that is widely used to measure intracellular oxidative stress. After 2 hours, the cells were washed in EBSS buffer (containing 25 mM glucose, 1.8 mM CaCal2, 1.2 mM MgSO4 and 2.5 mM probenecid (pH7.4)), and the fluorescence of DCF was measured with a fluorescence microplate reader (SpectraMax GeminiEM; Ex=485 nm, Em=530 nm) or a fluorescence microscope (DM IL HC Fluo, Leica, Wetzlar, Germany) equipped with a digital camera (DFC420C, Leica, Wetzlar Germany). The fluorescence intensity was compensated with autofluorescence (i.e., the fluorescence of cells not loaded with H2DCF-DA).

Another data set has as its system focal ischemia. The note with it: rats and gerbils; literature; cited from earlier work.

Molecules are shown by their SMILES.

What is called melting point is the temperature of the solid-liquid transition.

In the case of `CC1(C)[C@@H]2C[C@H]1C(C=Cc1ccc(O)c(O)c1)=CC2=O` [Compound 3c, (1S,5R)-4-(3,4-dihydroxystyryl)-6,6-dimethylbicyclo[3.1.1]hept-3-en-2-one], in the data set with cortical neurons [1], the NMDA-induced neuronal injury result is listed as “significantly reduced NMDA-induced neuronal injury”. The “DPPH scavenging activity (in words)” value in data set [2] (compared to vitamin C at the same concentration) is listed as “stronger scavenging activity compared to vitamin C”. In addition, the “DPPH assay % inhibition” value in data set [2] (relative to vitamin C (Equation 1)) is listed as 91.62 ± 3.27%. Besides, the “neuronal injury induced by OGD (LDH release)” value with cortical neurons [3] (OGD/reoxygenation, comparable to MK801) is reported as “significantly reduced neuronal injury”. The cytotoxicity result with cortical neurons [3] is “showed no cytotoxicity”. Moreover, in data set [4], the “ORAC assay Net AUC” value amounted to 131.29 ± 11.97 and the “ORAC assay TE25 (trolox equivalents)” value came out at 3.11 ± 0.11. Moreover, the “OGD-induced intracellular oxidative stress (DCF fluorescence)” value in the data set with cortical neurons [5] was “reduced OGD-induced intracellular oxidative stress”.

`C[C@]12N[C@H](Cc3ccccc31)c1ccccc12` [MK-801]: the “time of administration after onset of focal ischemia giving a neuron protection effect” value in the data set on focal ischemia was at most 1 h.

Compound `CC1(C)[C@@H]2C[C@H]1C(C=Cc1ccc(-n3cccc3)cc1)=CC2=O` [Compound 4e, (1S,5R)-4-(4-(1H-pyrrol-1-yl)styryl)-6,6-dimethylbicyclo[3.1.1]hept-3-en-2-one] displayed a melting point of 146 to 148 °C. For the same compound, in data set [4], the “ORAC assay Net AUC” value is recorded as 98.31 ± 0.48 and the “ORAC assay TE25 (trolox equivalents)” value is 2.19 ± 0.01. Further, the “peroxyl radical scavenging activity in ORAC assay (in words)” value in data set [4] (compared to trolox) is given as “strong peroxyl radical scavenging activities compared to trolox”.

These data come from patent US10710951B2, “Pharmaceutical composition containing verbenone derivative for treating or preventing neurodegenerative disease” (KOREA UNIVERSITY RESEARCH AND BUSINESS FOUNDATION, priority 2012, dated 2020).
